Measurements: a melting point compilation (Tetko et al.; mined from patent text by program, amines drawn as free bases though some values may be those of a salt)

| Structure (SMILES) | melting point |
| --- | --- |
| CC(C)(C)OC(=O)Nc1cccc(C2(O)CCOCC2)c1 | 140 to 142 °C |
| C#CCOc1cc(-n2nc(C)c([N+](=O)[O-])c2C)c(F)cc1Cl | 125 to 126 °C |
| CC(=O)OC[C@H]1NC(=O)[C@@H](Cc2cn(C)c3ccccc23)NC1=O | 250 to 252 °C |
| CC(=O)Nc1cccc(C#Cc2ccc(OC3CN4CCC3CC4)nn2)c1 (stereo not drawn) | 132 to 134 °C |
| O=C(O)CC1CCC2CC(=O)NC12 (stereo not drawn) | 186 to 189 °C |
| CNC(=S)NC(c1ccccc1)c1ccccc1 | 152 to 154 °C |
| Cc1ccsc1C=C1C(=O)COC1=O | 164 to 166 °C |
| Clc1cnc(Sc2ccccc2)nc1 | 47 °C |
| Cc1nn(-c2cc3nc(S)sc3cc2Cl)c(=O)n1C(F)F | 201 to 203 °C |
| CC12CCC(C1)C1(C)Oc3ccc(C(=O)c4ccc(C=O)cc4)cc3C21C (stereo not drawn) | 138 to 142 °C |
| C=CN1NCC2CC3=C(C=CC(c4ccc(F)cc4)C3)CC21C (stereo not drawn) | 70 to 72 °C |
| CC(C)(C)[Si](C)(C)Oc1cccc(C(O)C(c2ccccc2)C2SCCCS2)c1 (stereo not drawn) | 75 to 76 °C |
| N#CC(N)=C(C#N)N=Cc1cnn(-c2c(Cl)cc(C(F)(F)F)cc2Cl)n1 | 234 to 235 °C |
| CCOC(=O)c1cn(-c2ccc(C(F)(F)F)cn2)nc1C(C)CC (stereo not drawn) | 63 to 64 °C |
| O=S(=O)(NC(CO)(CO)CO)c1cncc(C#Cc2cnn3c(C(F)(F)F)cc(-c4ccc(C(F)(F)F)cc4)nc23)c1 | 230 to 232 °C |
| CC(=O)C=Cc1ccc(Cl)c(Cl)c1 | 53 to 55 °C |
| COc1ccc2nc(NC(=O)C(CC3CCCC3)c3ccc(S(=O)(=O)N4CCN(C(C)=O)CC4)cc3)sc2n1 (stereo not drawn) | 215 to 217 °C |
| Cc1oncc1C(=O)Nc1ccc(N)cc1 | 123 to 128 °C |
| Cc1cc(N)n(-c2c(Cl)cc(Cl)cc2Cl)n1 | 132 to 134 °C |
| COC(=O)N1CCN(C(=O)c2cc(S(=O)(=O)NN(C)C)ccc2N)CC1 | 169 to 171 °C |

| Structure (SMILES) | melting point |
| --- | --- |
| CCOC(=O)C(OCc1ccc(Cl)cc1)(C(F)(F)F)C(F)(F)F | 33 °C |
| CN(C)CCCC1(C#N)c2ccccc2COc2ccccc21 (stereo not drawn) | 112 to 114 °C |
| CC(=O)N1C(C)(C)CC(Oc2nc(OC3CC(C)(C)N(O)C(C)(C)C3)nc(N3C(C)(C)CCCC3(C)C)n2)CC1(C)C | 175 to 176 °C |
| CCc1c(C(=O)C(N)=O)c2c(OCC(=O)O)cc3c(c2n1Cc1ccccc1)CCCC3 | 222 to 225 °C |
| Cc1nccc2c3ccc(OCC4CCCCC4)cc3n(CC3CCCCC3)c12 | 152 °C |
| OCC1OC(n2c(SCc3ccccc3)nc3cc(Cl)c(Cl)cc32)C(O)C1O (stereo not drawn) | 196 to 198 °C |
| O=C(O)CCc1c(-c2ccccc2)noc1-c1ccccc1 | 152 to 153 °C |
| O=C(CCl)Nc1ccc(Cl)cc1C(=O)O | 188 °C |
| CCOC(=O)c1cnc2c(I)cc(COC(C)=O)cc2c1O | 119 to 123 °C |
| CN1C(=O)SC(C)(C)[C@@H]1[C@@H](CS(=O)(=O)c1ccc(Oc2ccc(OC(F)(F)F)cc2)cc1)N(O)C=O | 84 to 86 °C |
| COc1cc2ccc(Br)cc2cc1C12CC3CC(CC(C3)C1)C2 | 164 to 168 °C |
| CCC(CC)Nc1nc(C)nc(Oc2c(C)cc(C)nc2C)c1[N+](=O)[O-] | 134 to 135 °C |
| COc1ccc(Cc2oc3ccc(OC)cc3c2CC#N)cc1 | 83 °C |
| NC(=S)c1ccc(Br)cc1 | 142 to 144 °C |
| O=C(Cc1ccc2c(c1)OCO2)N[C@H]1CC[C@H](CCN2CCN(c3nccc4c3CCO4)CC2)CC1 | 212 °C |
| Cn1c(C(F)(F)F)cc(=O)n(-c2ccc3snc(COCC(=O)NS(C)(=O)=O)c3c2)c1=O | > 240 °C |
| CCCCc1c(-c2ccncc2)[nH]c(-c2ccncc2)c1C(=O)OCC | 256 to 258 °C |
| O=C(Cc1ccc(I)cc1)NC[C@H]1CCCN1CCF | 96 °C |
| COc1ccc(Oc2cccc(CCN(C)CCN(O)C(N)=O)c2)cc1 | 87 to 88.5 °C |
| C=CCN(CC)c1nc(N2CCc3ccccc3CC2)c(C#N)c(=O)n1CC=C | 138 to 140 °C |

Results, then the compound that gave them:

| melting point | Structure (SMILES) |
| --- | --- |
| 160 °C | Fc1ccc(Cn2c(NC3CCN(CCSc4nc5cccnc5s4)CC3)nc3ccccc32)cc1 |
| 282 °C | CC1(C)CCC(C)(C)c2cc3cc(-c4ccc(C(=O)O)cc4)ccc3cc21 |
| 217 to 219 °C | COc1ccc2c(Cc3c(Cl)cncc3Cl)nncc2c1C#Cc1ccccc1 |
| 289 to 292 °C | Cc1cnc(-c2ccc3c(c2)c2cc(-c4ccc(Cl)cc4Cl)c(=O)n(C)c2n3C)o1 |
| 156 to 157 °C | O=C(Nc1ccc(-n2nc(C(F)(F)F)cc2C(F)(F)F)cc1)c1ccncc1 |
| 178 to 180 °C | CC(C)(C)OC(=O)N1CCn2c(Cl)c(-c3ccccc3)c(C(N)=O)c2C1 |
| 101 to 103 °C | CS(=O)(=O)c1ccc(-c2cnn(-c3ccc(F)c(Cl)c3)c(=O)c2Cc2cccc(F)c2)cc1 |
| 48 to 50 °C | COc1ccc(C2CCN(CCCCc3ccccc3)CC2)cc1 |
| 193 to 195 °C | c1csc(-c2cccc3c(-c4cccs4)cccc23)c1 |
| 147 to 149 °C | COc1cc2onc(C3CCN(CCCn4c(=O)[nH]c5ccccc54)CC3)c2cc1OC |
| 108 to 109 °C | CCc1nc(/C=C\c2cn(-c3ccccc3)nc2OCc2ccc(OCc3nc(-c4ccco4)oc3C)c(OC)c2)cs1 |
| 159 to 160 °C | COc1ccc2c(c1)C(c1ccc(OCCN(C)C)cc1)c1c-2ccc2ccccc12 (stereo not drawn) |
| 260 to 262 °C | CC(C)c1nccn1Cc1ccc2c(c1)Cc1c(-c3ccsc3)n[nH]c1-2 |
| 232 °C | COc1ccc(N2CCN(c3ccc(-n4cnnc4S)cc3)CC2)cc1 |
| 82.1 to 83.6 °C | O=C1c2ccccc2C(=O)N1Cc1ccc(OC(F)(F)F)cc1 |
| 127 °C | COc1nc(NCCc2ccc(OC(F)F)cc2)nc(-c2ccc(Cl)c(C(C)(C)O)c2)n1 |
| 165 to 166 °C | CS(=O)(=O)c1ccc(-n2nc(C(F)(F)F)cc2-c2ccc(-c3ccoc3)cc2)cc1 |
| 218 to 220 °C | CCOC(=O)c1cn(C)c2cnc3cc(F)c(N4CCCC(C)(C)C4)cc3c2c1=O |
| 132 °C | COC(c1ccc(Cl)cc1)(c1cc2c3c(c1)c(-c1cccc(Cl)c1)cc(=O)n3CCC2)c1nncn1C (stereo not drawn) |
| 128 to 129 °C | OCCC#Cc1ccc2c(-c3ccc(Cl)cc3)nsc2c1 |
| 237 °C | CNC(=S)NC1=NN(c2ccc(Cl)cc2)CC1 |
| 221 to 223 °C | Nc1cc2cccnc2c(-c2cccc([N+](=O)[O-])c2)n1 |
| 146 to 148 °C | COC(C)CCC1(O)C2=NCCCN2c2cc(Cl)ccc21 (stereo not drawn) |
| 138 to 142 °C | COC(=O)c1cccc(Oc2ccc(NC(=O)c3ccc([N+](=O)[O-])cc3Br)cc2NC(=O)c2ccc([N+](=O)[O-])cc2Br)c1C(=O)OC |
| 196 °C | Cc1cc(C)cc(N(CCN)Cc2ccc3nc(NCCCN4CCOCC4)n(Cc4nc(C)ccc4O)c3c2)c1 |
| 55 to 56 °C | Cc1cccc(C)c1CNc1cc(C(=O)N(C)C)cc2c1nc(C)n2COCc1ccccc1 |
| 232 to 233 °C | Cn1c(=O)c(-c2ccc(Cl)cc2Cl)cc2c3cc(-c4ncco4)ccc3n(C)c21 |
| > 260 °C | Cc1cc(C)c2cccc(OCc3c(Cl)ccc(S(=O)(=O)N4CC(O)CC4C(=O)O)c3Cl)c2n1 (stereo not drawn) |
